Publication PMC11603075 (Communications Biology, 2024)

Assays:
KDM5A = experiment: MALDI–TOF MS demethylation/+16 Da assay, KDM5A; assay type: biochemical, human; conditions: 90 min
Description: Fig. 2 Histone H2a fragments are KDM5 and KDM4 substrates. […] See Supplementary Table 6 and Supplementary Fig. 2 for assay conditions and quantification, respectively. […] 0-minute MS spectrum in black, 60/90-minute spectrum in red.
MS-based screening assays with peptides and calf thymus histones were as reported; see Supplementary Table 6 for conditions. Time course assays were based on reported procedures. In brief, equal volumes of the enzyme and substrate solutions were combined to initiate the reaction; 10 µL of 2% (v/v) formic acid (HCOOH) in ddH2O or 100% methanol was added to 10 µL of the reaction mixture to quench reactions at different time points. Unless otherwise stated, time course assays were carried out in triplicate. In some cases, LC–MS was used instead of MALDI-TOF MS to avoid a MALDI matrix induced artefact with the hydroxylated product (Supplementary Fig. 16). […]
Supplementary Figure 2 Histone H2a peptide fragments are substrates of KDM4s and KDM5s.
2 for representative corresponding MALDI–TOF MS traces. Bar graphs comparing % product format ion (+16 Da and demethylation) of H2a(1–20)R3me2a by (a) K DM5 A–D (after 90 minutes) and (b) KDM4A–E ( a ft er 60 minutes), analysed by MALDI– TOF MS. n = (a) 2, (b) 3 (independent assays). See Supplementary Table 6 for assay condit ions. See Figure S13 A 1 for a positive control.
(also on this page, place not known: formation KDM5A–D (after MALDI–TOF conditions. Figure S13A1 KDM4A KDM4B KDM4C KDM4D KDM4E 80% product formation KDM5A KDM5B KDM5C KDM5D % product formation) […]
(§1) [ E nz ym e] [Peptide] [2OG] [Ascorbate] [(NH4)2F e(S O4)2] [TCEP] Buffer pH7.5 Enzyme Cognate substrate (mM) (mM) (mM) (mM) (mM) (mM) [HE PE S]
(§2) Supplementary Table 6 Summary of MS assay conditions for substrate screening. These conditions enabled efficient turnover of established substrates. Reactions were carried out at 37 °C unless otherwise st ated. […]

KDM5C = target: T1, KDM5C (Homo sapiens, UniProt P41229); experiment: MALDI–TOF MS time course / specific activity, KDM5C; assay type: biochemical; conditions: for specific activity: KDM5C
T1 construct: KDM5C 1– 765; made in house; host or cells: Sf9 cells
T1 sequence (P41229 1-765): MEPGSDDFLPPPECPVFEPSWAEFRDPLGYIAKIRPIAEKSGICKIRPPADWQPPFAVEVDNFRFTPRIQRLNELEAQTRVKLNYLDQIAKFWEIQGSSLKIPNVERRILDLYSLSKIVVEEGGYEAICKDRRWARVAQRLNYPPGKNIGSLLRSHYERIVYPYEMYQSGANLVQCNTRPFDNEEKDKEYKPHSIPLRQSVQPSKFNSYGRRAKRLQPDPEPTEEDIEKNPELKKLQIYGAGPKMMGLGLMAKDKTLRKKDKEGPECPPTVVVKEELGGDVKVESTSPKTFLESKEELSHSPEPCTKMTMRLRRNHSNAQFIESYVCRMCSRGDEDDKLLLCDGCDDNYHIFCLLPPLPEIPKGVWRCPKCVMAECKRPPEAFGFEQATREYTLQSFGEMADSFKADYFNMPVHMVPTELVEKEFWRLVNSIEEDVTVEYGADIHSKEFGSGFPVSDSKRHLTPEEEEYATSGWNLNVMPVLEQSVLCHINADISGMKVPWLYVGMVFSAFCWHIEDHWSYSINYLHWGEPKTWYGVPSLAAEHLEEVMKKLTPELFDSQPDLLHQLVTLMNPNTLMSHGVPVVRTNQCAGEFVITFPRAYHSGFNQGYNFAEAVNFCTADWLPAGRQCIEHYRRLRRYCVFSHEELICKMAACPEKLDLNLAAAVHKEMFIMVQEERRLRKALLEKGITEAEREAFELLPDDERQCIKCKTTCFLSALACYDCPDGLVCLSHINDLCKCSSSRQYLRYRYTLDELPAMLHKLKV
Procedure: MS-based screening assays with peptides and calf thymus histones were as reported; see Supplementary Table 6 for conditions. Time course assays were based on reported procedures. In brief, equal volumes of the enzyme and substrate solutions were combined to initiate the reaction; 10 µL of 2% (v/v) formic acid (HCOOH) in ddH2O or 100% methanol was added to 10 µL of the reaction mixture to quench reactions at different time points. Unless otherwise stated, time course assays were carried out in triplicate. In some cases, LC–MS was used instead of MALDI-TOF MS to avoid a MALDI matrix induced artefact with the hydroxylated product (Supplementary Fig. 16).
Data collected from time course assay(s) were used to plot the % conversion vs time (min) using GraphPad Prism5 version 5.04; the resultant slopes were used to fit a line with linear regression to the first-order region of the reaction. The resultant gradient was then converted from % product formation min^−1 to amount of peptide converted (demethylation and / or hydroxylation) in µM.
Supplementary Figure 4 Activity of KDM5C (black circles) with H2a(1–20)R3me2a is greater than that of KDM4E (white circles). (a) A MALDI–TOF MS time course graph of product formation (%) of KDM4E ( −14 Da/+16 Da) and KDM5C (−14 Da) reaction with H2a(1–20)R3me2a versus time (minutes). ~60% substrate depletion was reached after 105 minutes with KDM4E; ~95% of H2a(1–20)R3me2a was demethylated after 1 05 minut e s wit h K DM5 C. (b ) Comparison of specific activities of KDM4E with H2a(1–20)R3me2a (0.15 […]
bars; +/- SD; n = 3 (independent assays). See Supplementary Table 6 for assay condit ions.
(also on this page, place not known: 105 minutes KDM5C. (b) H2a(1 –20)R3me2a with conditions. specific activity (pmol·min-1·μM-1))
(1 picture or pasted object on this page, not shown here)
as §1, §2

product formation (−14 Da) (KDM5C; 0 min, replicate 1): 0%
product formation (−14 Da) (KDM5C; 0 min, replicate 2): 0%
product formation (−14 Da) (KDM5C; 0 min, replicate 3): 0%
product formation (−14 Da) (KDM5C; 5 min, replicate 1): -4.611%
product formation (−14 Da) (KDM5C; 5 min, replicate 2): 1.214%
product formation (−14 Da) (KDM5C; 5 min, replicate 3): 6.766%
product formation (−14 Da) (KDM5C; 15 min, replicate 1): 6.633%
product formation (−14 Da) (KDM5C; 15 min, replicate 2): 6.871%
product formation (−14 Da) (KDM5C; 15 min, replicate 3): 19.5603%
product formation (−14 Da) (KDM5C; 30 min, replicate 1): 38.5829%
product formation (−14 Da) (KDM5C; 30 min, replicate 3): 44.7254%
product formation (−14 Da) (KDM5C; 45 min, replicate 1): 64.1732%
product formation (−14 Da) (KDM5C; 45 min, replicate 2): 64.8428%
product formation (−14 Da) (KDM5C; 45 min, replicate 3): 72.262%
product formation (−14 Da) (KDM5C; 60 min, replicate 1): 81.9609%
product formation (−14 Da) (KDM5C; 60 min, replicate 2): 81.6263%
product formation (−14 Da) (KDM5C; 60 min, replicate 3): 82.8852%
product formation (−14 Da) (KDM5C; 75 min, replicate 1): 85.9119%
product formation (−14 Da) (KDM5C; 75 min, replicate 2): 87.0734%
product formation (−14 Da) (KDM5C; 75 min, replicate 3): 90.3242%
product formation (−14 Da) (KDM5C; 90 min, replicate 1): 92.0497%
product formation (−14 Da) (KDM5C; 90 min, replicate 2): 90.1323%
product formation (−14 Da) (KDM5C; 90 min, replicate 3): 97.0348%
product formation (−14 Da) (KDM5C; 105 min, replicate 1): 95.3885%
product formation (−14 Da) (KDM5C; 105 min, replicate 2): 93.3144%
product formation (−14 Da) (KDM5C; 105 min, replicate 3): 100%
specific activity (KDM5C; mean of n = 3, SD 0.006): 0.37 pmol min^−1 µM^−1
specific activity (KDM5C; repeat 1): 0.3803 pmol·min-1·μM-1
specific activity (KDM5C; repeat 2): 0.3775 pmol·min-1·μM-1
specific activity (KDM5C; repeat 3): 0.3654 pmol·min-1·μM-1
RDM activity of KDM5C relative to KDM4E (times) (KDM5C; ratio of specific activities): 2.5 times
Substance: Ac - SGR [ me 2a ] GKQ GGKAR AKAKT R SSR [H2a(1–20)R3me2a, H2a(1–20)R3me2a without a biotin tag]
+16 Da (% product formation) (KDM5A; replicate 1): 0%
demethylation (% product formation) (KDM5A; replicate 1): 52.427%
+16 Da (% product formation) (KDM5A; replicate 2): 0%
demethylation (% product formation) (KDM5A; replicate 2): 53.348%
